US10017481B2, “Conformationally constrained, fully synthetic macrocyclic compounds” (POLYPHOR AG, priority 2012, dated 2018)

How the values were obtained:
Type in all cases: in vitro ADME
[1] = Metabolic stability assay, CD-1 mouse microsomes; conditions: CD-1 mouse microsomes, 10 μM, 37° C.; for half-life at 10 μM: both sexes, 1 mg/ml protein, read-out: Metabolic Stability T ½ [min] mouse/(rat)
Experimental: (§1) 5. Plasma and Metabolic Stability Assays
(§2) Example compounds were dissolved in DMSO/H2O 90:10 to a final concentration of 10 mM for plasma stability determination and metabolic stability determination.
(§3) The assays were conducted according to literature precedents (F. P. Guengerich, Analysis and Characterization of Enzymes; in: Principles and Methods of Toxicology, A. W. Hayes (Ed.) Raven Press: New York, 1989, 777-813; R. Singh et al., In vitro metabolism of a potent HIV-protease inhibitor (141W94) using rat, monkey and human liver S9, Rapid Commun. Mass Spectrom. 1996, 10, 1019-1026).
(§4) Metabolic Stability Assay
(§5) Microsomes from a human 50 donor mixed gender pool and 1:1 mixtures of microsomes from CD-1 mouse single-gender pools are purchased from Celsis (Belgium). The enzymatic reaction is performed in a buffer containing an NADPH regeneration system and microsomes with the following end concentrations: 100 mM potassium phosphate buffer (all from Sigma), 1 mg/mL glucose-6-phosphate, 1 mg/mL β-nicotinamide adenine dinucleotide phosphate (NADP), 0.65 mg/mL magnesium chloride, 0.8 units/mL of glucose-6-phosphate dehydrogenase (prediluted with 5 mM citrate buffer), 10 μM compound and 1 mg/ml microsomal protein. Compounds are incubated at 37° C. in duplicates and samples are taken after 0, 5, 10, 20 and 60 minutes. After acetonitrile precipitation (3 volumes), shaking (2 minutes, 600 rpm) followed by centrifugation (10 minutes, 3200 g), the supernatant is dried reconstituted in the suitable solvent (cf. Table 33) and analyzed by HPLC/MS/MS. Metabolic turnover is expressed in % of the initial 0 minutes value and half life T½ (min) is calculated. Verapamil for human and propranolol for mouse are used as reference and are assayed with every experimental set.

[2] = Plasma stability assay, CD-1 mouse plasma; conditions: for Plasma Stability 240 min mouse/(rat) [% remain.]: CD-1 mouse plasma, 10 μM, 37° C.; for half-life at 10 μM: both sexes, CD-1, mouse, plasma
Experimental: (§6) 5. Plasma and Metabolic Stability Assays Example compounds were dissolved in DMSO/H2O 90:10 to a final concentration of 10 mM for plasma stability determination and metabolic stability determination. The assays were conducted according to literature precedents (F. P. Guengerich, Analysis and Characterization of Enzymes; in: Principles and Methods of Toxicology, A. W. Hayes (Ed.) Raven Press: New York, 1989, 777-813; R. Singh et al., In vitro metabolism of a potent HIV-protease inhibitor (141W94) using rat, monkey and human liver S9, Rapid Commun. Mass Spectrom. 1996, 10, 1019-1026). Plasma Stability Assay Human plasma (Blutspendedienst SRK, Basel) and CD-1 mouse plasma (mixed gender pool >50 animals, Innovative Research, Calif., USA) are both sodium citrate stabilized. The assay is performed in triplicates at 10 μM compound concentration and 37° C. Samples are taken at 0, 15, 30, 60, 120 and 240 minutes and stopped by precipitation with 3 volumes of acetonitrile/formic acid 98:2 and shaking (2 minutes, 600 rpm) followed by filtration (−20 mm Hg). The filtrate is collected. The filtrate (100 μL) is evaporated and reconstituted in the suitable solvent (cf. Table 33) to be analyzed by HPLC/MS/MS. The resulting peak area counts are expressed in percent of the 0 value and used to determine the endpoint stability in % and the half life T in minutes. In order to monitor assay integrity the degradation of propantheline is assayed with every experimental set.

[3] = Metabolic stability assay, human liver microsomes; conditions: human microsomes, 10 μM, 37° C.; for half-life at 10 μM: both sexes, liver microsomes, 1 mg/ml protein, read-out: Metabolic Stability T ½ [min] hum
Experimental: as §1, §2, §3, §4, §5

[4] = Plasma stability assay, human plasma; conditions: for Plasma Stability 240 min hum [% remain.]: human plasma, 10 μM, 37° C.; for half-life at 10 μM: human, plasma
Experimental: as §6

Row | Metabolic Stability 60 min mouse/(rat) [% remain.] [1] [% remain.] | half-life at 10 μM [1] [min] | Plasma Stability 240 min mouse/(rat) [% remain.] [2] [% remain.] | half-life at 10 μM [2] [h] | half-life at 10 μM [3] [min] | Metabolic Stability 60 min hum [% remain.] [3] [% remain.] | Plasma Stability 240 min hum [% remain.] [4] [% remain.] | half-life at 10 μM [4] [h] | SMILES
1 | 62 | > 60 | 81 | > 4 | 56 | 49 |  |  | C[C@H]1COc2cccc(c2)-c2cccc(c2)C(=O)N(C)[C@H](C(=O)NCc2cn(C)cn2)CCC(=O)N1 [Ex. 88, (9S,14S)-9,15-dimethyl-N-[(1-methyl-1H-imidazol-4-yl)methyl]-11,16-dioxo-7-oxa-10,15-diazatricyclo[15.3.1.1^2,6]docosa-1(21),2(22),3,5,17,19-hexaene-14-carboxamide]
2 | 98 | > 60 | 80 | > 4 | > 60 | 97 |  |  | COc1ccc2c(c1)-c1cccc(c1)C(=O)N(C)[C@H](C(=O)NCCO)CCC(=O)N[C@H](C)CO2 [Ex. 55, (10R,15S)-N-(2-hydroxyethyl)-4-methoxy-10,16-dimethyl-12,17-dioxo-8-oxa-11,16-diazatricyclo[16.3.1.0^2,7]docosa-1(22),2,4,6,18,20-hexaene-15-carboxamide]
3 | 9 | 15 |  |  | 16 | 4 | 88 | > 4 | C[C@H](NC(=O)[C@@H]1CCC(=O)N[C@@H](C)COc2cccc(c2)-c2cccc(c2)C(=O)N1C)c1ccccc1 [Ex. 76, (9S,14S)-9,15-dimethyl-11,16-dioxo-N-[(1S)-1-phenylethyl]-7-oxa-10,15-diazatricyclo[15.3.1.1^2,6]docosa-1(21),2(22),3,5,17,19-hexaene-14-carboxamide]
4 | 96 | > 60 | 93 | > 4 | > 60 | 85 | 85 | > 4 | C[C@H]1COc2cccc(c2)-c2cccc(c2)C(=O)N(C)[C@H](C(=O)NCC(=O)O)CCC(=O)N1 [Ex. 83, 2-({[(9S,14S)-9,15-dimethyl-11,16-dioxo-7-oxa-10,15-diazatricyclo[15.3.1.1^2,6]docosa-1(21),2(22),3,5,17,19-hexaen-14-yl]carbonyl}amino)acetic acid]
5 | 48 | 53 | 55 | > 4 | 21 | 12 | 93 | > 4 | C[C@H]1COc2cccc(c2)-c2cccc(c2)C(=O)N(C)[C@H](C(=O)NCc2cccnc2)CCC(=O)N1 [Ex. 75, (9S,14S)-9,15-dimethyl-11,16-dioxo-N-(3-pyridinylmethyl)-7-oxa-10,15-diazatricyclo[15.3.1.1^2,6]docosa-1(21),2(22),3,5,17,19-hexaene-14-carboxamide]
6 | 80 | > 60 | 88 | > 4 | > 60 | 100 | 100 | > 4 | C[C@H]1COc2cccc(c2)-c2cccc(c2)C(=O)N(C)[C@H](C(=O)NCCCN2CCCC2)CCC(=O)N1 [Ex. 85, (9S,14S)-9,15-dimethyl-11,16-dioxo-N-[3-(1-pyrrolidinyl)propyl]-7-oxa-10,15-diazatricyclo[15.3.1.1^2,6]docosa-1(21),2(22),3,5,17,19-hexaene-14-carboxamide]
7 | 75 | > 60 | 85 | > 4 | 44 | 41 | 96 | > 4 | COCCNC(=O)[C@@H]1CCC(=O)N[C@@H](C)COc2cccc(c2)-c2cccc(c2)C(=O)N1C [Ex. 77, (9S,14S)-N-(2-methoxyethyl)-9,15-dimethyl-11,16-dioxo-7-oxa-10,15-diazatricyclo[15.3.1.1^2,6]docosa-1(21),2(22),3,5,17,19-hexaene-14-carboxamide]
8 | 70 | > 60 |  |  | > 60 | 87 | 95 | > 4 | COc1ccc2c(c1)-c1cccc(c1)C(=O)N(C)[C@H](C(=O)N[C@@H](C)c1ccccc1)CCC(=O)N[C@H](C)CO2 [Ex. 58, (10R,15S)-4-methoxy-10,16-dimethyl-12,17-dioxo-N-[(1S)-1-phenylethyl]-8-oxa-11,16-diazatricyclo[16.3.1.0^2,7]docosa-1(22),2,4,6,18,20-hexaene-15-carboxamide]
9 | 19 | 25 |  |  | 8 | 0 | 97 | > 4 | COc1ccc2c(c1)-c1cccc(c1)C(=O)N(C)[C@H](C(=O)NCc1cccc3ccccc13)CCC(=O)N[C@H](C)CO2 [Ex. 60, (10R,15S)-4-methoxy-10,16-dimethyl-N-(1-naphthylmethyl)-12,17-dioxo-8-oxa-11,16-diazatricyclo[16.3.1.0^2,7]docosa-1(22),2,4,6,18,20-hexaene-15-carboxamide]
10 | 0 | 1 |  |  | 2 | 0 | 89 | > 4 | C[C@H]1COc2cccc(c2)-c2cccc(c2)C(=O)N(C)[C@H](C(=O)NCCc2ccccc2)CCC(=O)N1 [Ex. 73, (9S,14S)-9,15-dimethyl-11,16-dioxo-N-phenethyl-7-oxa-10,15-diazatricyclo [15.3.1.1^2,6]docosa-1(21),2(22),3,5,17,19-hexaene-14-carboxamide]
11 | 92 | > 60 | 86 | > 4 | > 60 | 100 |  |  | COc1ccc2c(c1)-c1cccc(c1)C(=O)N(C)[C@H](C(=O)NCC(F)(F)F)CCC(=O)N[C@H](C)CO2 [Ex. 53, (10R,15S)-4-methoxy-10,16-dimethyl-12,17-dioxo-N-(2,2,2-trifluoroethyl)-8-oxa-11,16-diazatricyclo[16.3.1.0^2,7]docosa-1(22),2,4,6,18,20-hexaene-15-carboxamide]
12 | 71 | > 60 | 60 | > 4 |  |  |  |  | C[C@H]1COc2cccc(c2)-c2cccc(c2)C(=O)N(C)[C@H](C(=O)N2CCC2)CCC(=O)N1 [Ex. 86, (9S,14S)-14-(1-azetanylcarbonyl)-9,15-dimethyl-7-oxa-10,15-diazatricyclo [15.3.1.1^2,6]docosa-1(21),2(22),3,5,17,19-hexaene-11,16-dione]
